According to patent publication US20090203526A1, “METHOD OF CONTROLLING UNWANTED VEGETATION” (Arysta LifeScience North America, LLC, priority 2008, published 2009):

Tests used:
Type in all cases: in vivo
Details in all cases: Site No. 1 (control site; g active/ha): Pre-emergent Glyphosate 450, Ammonium sulphate 1.12 kg/ha
Bromus secalinus = assay: Example 7 field sites: visual % control of Cheat (Bromus secalinus)
Description: (§1) Another study was conducted to test various application methods using flucarbazone-sodium (PREPARE) in a pre-emergent application followed by post-emergent application with propoxycarbazone (OLYMPUS®), pyroxsulam (Simplicity®), sulfosulfuron ([…]®), pinoxaden (AXIAL™ XL) and flucarbazone-sodium (EVEREST®) to control Bromus secalinus and Foxtail Barley.
(§2) To better evaluate the ability of each treatment scheme in controlling unwanted vegetation in a planting site, a group of nearly identical crop planting sites (Site 1-Site 10) were subjected to different treatment schemes. Again, Site No. 1 was a control site. Sites No. 2-Sites No. 10 were treated with either a pre-emergent treatment or sequential pre-emergent and post-emergent treatment schemes. Treatment rates were based on the recommended lower rate provided on the product label (grams of active ingredient per hectare). […]
(§3) Site No. 1 was not treated with a pre-emergent treatment or a post-emergent treatment, allowing Bromus secalinus and Foxtail Barley to emerge either with the crop or after crop emergence. […] Thus, percent control for Bromus secalinus and Foxtail Barley were evaluated as the weed-free area in the particular site in comparison to the completely weed covered Site No. 1. […]

Foxtail Barley = assay: Example 7 field sites: visual % control of Foxtail Barley
Description: as §1, §2, §3

Wild Oat [1] = assay: Example 8 field sites: visual % control of Wild Oat
Description: as §1, with “(PrePare)” for “(PREPARE)”, “(SIMPLICITY®),” for “(Simplicity®),”, “Wild Oat.” for “Bromus secalinus and Foxtail Barley.”
as §2, with “schemes.” for “schemes. Again,”, “was again” for “was”, “site and sites” for “site. Sites”, “varying” for “either a pre-emergent treatment or sequential pre-emergent and post-emergent”, “Again, the treatment” for “Treatment”
Site No. 1 was not treated with a pre-emergent application or post-emergent application of herbicidally active compounds, allowing Wild Oat to emerge either with the crop or after crop emergence. […] Thus, percent control for Wild Oat was evaluated as the weed-free area in the particular site in comparison to the completely weed covered Site No. 1. Further, the respective crop yield for each crop planting site was also recorded. […]

Wild Oat [2] = assay: Example 6 field sites: visual % control of wild oat
Description: A study was conducted to test various application methods using flucarbazone-sodium (PREPARE) in a pre-emergent application followed by post-emergent application with clodinafop (DISCOVER® NG), pinoxaden (AXIAL™ XL) and flucarbazone-sodium (EVEREST®) for control of wild oat.
To better evaluate the ability of each treatment scheme in controlling unwanted vegetation in a planting site, a group of nearly identical crop planting sites (Site 1-Site 7) were subjected to different treatment schemes. Site No. 1 was to act as a control site and Site No. 2-Sites No. 7 were treated with a pre-emergent treatment or sequential pre-emergent and post-emergent treatment schemes. Treatment rates were based on the recommended rate provided on the product label (grams of active ingredient per hectare). Since the label provides a range, the rate applied is based on the lower recommended rate from the label range. […]
Site No. 1 was not treated with a pre-emergent or a post-emergent application of a herbicidally active compound according to embodiments of the present invention, allowing wild oat to emerge either with the crop or after crop emergence. […] Thus, percent control for wild oat was evaluated as the weed-free area in the particular site in comparison to the completely weed covered Site No. 1. […]

crop = test system: crop
Description: Site No. 1 was again a control site and sites No. 2-Sites No. 10 were treated with varying treatment schemes. […] In all sites, any pre-existing weeds that germinated and grew to cover the sites were removed with glyphosate to ensure a more accurate determination of the viability of each treatment scheme. For Site No. 2-Site No. 10, glyphosate was tank-mixed with PREPARE and applied to each site prior to the emergence of the desired crop.
The remaining sites were allowed the same amount of time for weed growth and were visually compared to crop planting site (Site No. 1). […] Further, the respective crop yield for each crop planting site was also recorded.
Ammonium sulphate is a commercially available fertilizer blend used as an adjuvant to improve performance of glyphosate.

Q: Which results are given for `O=C(O)CNCP(=O)(O)O` [Glyphosate, glyphosate]?
A: % Control of Cheat (Bromus secalinus) at 86 days after application (Bromus secalinus): 5%; % Control of Foxtail Barley at 86 days after application (Foxtail Barley): 0%; % Control of Wild Oat at 86 days after application (Wild Oat [1]): 27%; % Control of Wild Oat at 89 days after application (Wild Oat [2]): 0%; Crop Yield (crop): 20.1 Bu./Acre
